From patent publication US20110224210A1, “NOVEL BIS-AMIDES AS ANTI-MALARIAL AGENTS” (priority 2008, published 2011) come the findings set out here.

Bounds are passed on as bounds.

This experiment has as its system P. falciparum K1 (strain resistant to chloroquine and pyrimethamine), erythrocytic stages. As to the kind of experiment: Plasmodium falciparum in vitro assay, [3H] hypoxanthine incorporation. Format: cell-based. Particulars: Plasmodium falciparum, K1, P. falciparum strain K1; [3H] hypoxanthine incorporation; read-out: IC50 (nM) on K1. In a few lines:
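K1 strain parasites grown in human red cells, 2.5% haematocrit, 0.3% parasitaemia, 37 °C, 4% CO2/3% O2; compounds in seven serial doubling dilutions.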

By IC50 is commonly meant the point on the concentration scale where inhibition reaches its midpoint. Take `COCCN(C)C(=O)[C@H](Cc1ccccc1)N(Cc1ccc(N2CCOCC2)cc1)C(=O)C=Cc1sc(C)nc1C` [Example 63, (S)-3-(2,4-Dimethyl-thiazol-5-yl)-N-{1-[(2-methoxy-ethyl)-methyl-carbamoyl]-2-phenyl-ethyl}-N-(4-morpholin-4-yl-benzyl)-acrylamide]: the IC50 stood at 87 nM. For `COCCN(C)C(=O)[C@H](Cc1ccccc1)N(Cc1ccc(N2CCOCC2)cc1)C(=O)C=Cc1c(C)noc1C` [Example 64, (S)-3-(3,5-Dimethyl-isoxazol-4-yl)-N-{1-[(2-methoxy-ethyl)-methyl-carbamoyl]-2-phenyl-ethyl}-N-(4-morpholin-4-yl-benzyl)-acrylamide] the value was 180 nM; for `COCCN(C)C(=O)[C@H](Cc1ccccc1)N(Cc1ccc(N2CCOCC2)cc1)C(=O)C=Cc1nc(C)oc1C` [Example 65, (S)-3-(2,5-Dimethyl-oxazol-4-yl)-N-{1-[(2-methoxy-ethyl)-methyl-carbamoyl]-2-phenyl-ethyl}-N-(4-morpholin-4-yl-benzyl)-acrylamide], 269 nM.

Regarding `COCCN(C)C(=O)[C@H](Cc1ccccc1)N(Cc1ccc(N2CCOCC2)cc1)C(=O)C=Cc1csnn1` [Example 66, (S)-N-{1-[(2-Methoxy-ethyl)-methyl-carbamoyl]-2-phenyl-ethyl}-N-(4-morpholin-4-yl-benzyl)-3-[1,2,3]thiadiazol-4-yl-acrylamide], the IC50 was determined as 494 nM. For `COCCN(C)C(=O)[C@H](Cc1ccccc1)N(Cc1ccc(N2CCOCC2)cc1)C(=O)C=Cc1ccc(C(F)(F)F)cn1` [Example 67, (S)-N-{1-[(2-Methoxy-ethyl)-methyl-carbamoyl]-2-phenyl-ethyl}-N-(4-morpholin-4-yl-benzyl)-3-(5-trifluoromethyl-pyridin-2-yl)-acrylamide] the value was < 8 nM. The result for `COCCN(C)C(=O)[C@H](Cc1ccccc1)N(Cc1ccc(N2CCOCC2)cc1)C(=O)C=Cc1ccc(C)cn1` [Example 68, (S)-N-{1-[(2-Methoxy-ethyl)-methyl-carbamoyl]-2-phenyl-ethyl}-3-(5-methyl-pyridin-2-yl)-N-(4-morpholin-4-yl-benzyl)-acrylamide] reads 156 nM; that for `COCCN(C)C(=O)[C@H](Cc1ccccc1)N(Cc1ccc(N2CCOCC2)cc1)C(=O)C=Cc1ccc(C)nc1` [Example 69, (S)-N-{1-[(2-Methoxy-ethyl)-methyl-carbamoyl]-2-phenyl-ethyl}-3-(6-methyl-pyridin-3-yl)-N-(4-morpholin-4-yl-benzyl)-acrylamide], 169 nM; that for `COCCN(C)C(=O)[C@H](Cc1ccccc1)N(Cc1ccc(N2CCOCC2)cc1)C(=O)C=Cc1ccc(Cl)nc1` [Example 70, (S)-3-(6-Chloro-pyridin-3-yl)-N-{1-[(2-methoxy-ethyl)-methyl-carbamoyl]-2-phenyl-ethyl}-N-(4-morpholin-4-yl-benzyl)-acrylamide], 144 nM. For `COCCN(C)C(=O)[C@H](Cc1ccccc1)N(Cc1ccc(N2CCOCC2)cc1)C(=O)C=Cc1ccc(OC)nc1` [Example 71, (S)-N-{1-[(2-Methoxy-ethyl)-methyl-carbamoyl]-2-phenyl-ethyl}-3-(6-methoxy-pyridin-3-yl)-N-(4-morpholin-4-yl-benzyl)-acrylamide] the value was 54 nM; for `COCCN(C)C(=O)[C@H](Cc1ccccc1)N(Cc1ccc(N2CCOCC2)cc1)C(=O)C=Cc1cnc(OC)nc1` [Example 72, (S)-N-{1-[(2-Methoxy-ethyl)-methyl-carbamoyl]-2-phenyl-ethyl}-3-(2-methoxy-pyrimidin-5-yl)-N-(4-morpholin-4-yl-benzyl)-acrylamide], 344 nM. Regarding `COCCN(C)C(=O)[C@H](Cc1ccccc1)N(Cc1ccc(-c2ccccn2)cc1)C(=O)C=Cc1ccn(C)n1` [Example 73, (S)-N-{1-[(2-Methoxy-ethyl)-methyl-carbamoyl]-2-phenyl-ethyl}-3-(1-methyl-1H-pyrazol-3-yl)-N-(4-pyridin-2-yl-benzyl)-acrylamide], the IC50 was 156 nM.
